One data set relates to HeLa cells. In words: HeLa cell assay (cytotoxicity). The format is cell-based. The note with it: Homo sapiens.
For data set [1], the system named is T.b. brucei (strain 427) bloodstream form parasites. In words: T.b. brucei single concentration screen (10 μM). The note with it: Trypanosoma brucei, read-out: T.b.brucei % viability (10 µM).
The subject of another data set is T. brucei culture. Also noted: method as in PMID 22148754, PMID 20360736. The note with it: through selective inhibition of T. brucei N-myristoyl transferase; cited from earlier work.
In data set [2] the test system is T.b. brucei (strain 427) bloodstream form parasites. In words: Trypanosoma brucei assay, dose–response (this study). The data set is classed as cell-based. The note with it: for IC50: Trypanosoma brucei; for Selectivity index: calculated as IC50(HeLa)/IC50(T.bb).
The next data set has as its system T.b. brucei. Also noted: method as in https://www.pathogenbox.org/. Conditions: Table 1, kinetoplastid category; ref https://www.pathogenbox.org/; read-out: T. brucei brucei IC50 (μM) Pathogen Box; cited from earlier work.
In another data set the test system is HepG2 cells. Also on record: method as in Pathogen Box. Conditions: ref Pathogen Box, read-out: CC50 against HepG2 cells; cited from earlier work.
Data set [3] concerns M. tuberculosis CTP synthase, PyrG. Also on record: method as in PMID 28475832. Conditions: cited from earlier work.
The next data set relates to mycobacterial. Also on record: method as in PMID 23268609. The note with it: inhibits the ATPase domain of DNA gyrase B; cited from earlier work.
For a further data set, the system named is Leishmaniasis donovani. Also noted: method as in Duffy et al. The note with it: ref Duffy et al.; cited from earlier work.
The test system of the next data set is plasmodial. Also on record: method as in PMID 22390538. Conditions: screen of the SoftFocus kinase library; cited from earlier work.
In a further data set the test system is kinetoplastid. Also on record: method as in PMID 25740547. Conditions: screen of 1.8 million compounds; cited from earlier work.
[4] abbreviates: Table 2, HeLa cells, 48 hours, resazurin, read-out: HeLa IC50.
Setting [5] is: Table 2, remaining Pathogen Box, 48 hours at 37 °C, resazurin, read-out: T. brucei brucei IC50 (μM) This study.
Setting [6] is: pIC50 values (M), read-out: pIC50 (T.b. brucei), this study (converted).

“Also recorded” adds a separate entry of the source. Read-outs that look alike come from different tables or passages of the source. Where only a bound is given, the exact number is not on record here.

For `Cc1nn(C)c(C)c1NS(=O)(=O)c1c(Cl)cc(-c2ccnc(N3CCNCC3)c2)cc1Cl` [Compound 1, Cc1nn(C)c(C)c1NS(=O)(=O)c2c(Cl)cc(cc2Cl)c3ccnc(c3)N4CCNCC4], the IC50 in the data set with HeLa cells (HeLa, 48 h, read-out: HeLa IC50 (μM)) is 2.8 µM; in data set [2] (48 h, read-out: T. brucei brucei IC50 (μM) This study) it was 11 µM; with T.b. brucei, < 0.13 µM. In addition, the viability at 10 µM in [1] is 2%. For the same molecule, the “Inhibition of T. brucei culture” value in the data set on T. brucei culture is given as “moderate inhibitor”.

`CCc1c(C)nc(-n2nc(C)cc2NC(=O)c2ccccc2SC)[nH]c1=O` [Compound 39, CCC1=C(C)N=C(NC1=O)n2nc(C)cc2NC(=O)c3ccccc3SC]: the IC50 in the data set with HeLa cells (setting [4]) was 2.6 µM; in data set [2] (setting [5]) it was 0.59 µM; in [2] (setting [6]), < 1 µM. Besides, the viability at 10 µM in data set [1] amounted to 2%. The CC50 with HepG2 cells is 1.3 µM. Also, in data set [2], the “T.b. brucei inhibition in words, this study” value (from here on “T.b. brucei inhibition”) is recorded as “sub-micromolar inhibitors; also recorded: sub-micromolar range”. Moreover, in data set [2], the Selectivity index is recorded as 4.4.

As for `CC(Oc1ccccc1)C(=O)Nc1nc(-c2ccccn2)cs1` (stereo not shown) [Compound 40, CC(Oc1ccccc1)C(=O)Nc2nc(cs2)c3ccccn3], the IC50 with HeLa cells (setting [4]) was 8.4 µM; in [2] (setting [5]), 0.76 µM; in [2] (setting [6]) it was < 1 µM. Besides, the viability at 10 µM in data set [1] was determined as 2%. Also, the “Inhibition of M. tuberculosis CTP synthase, PyrG” value in data set [3] is given as “moderate inhibitors”. For the same molecule, the “T.b. brucei inhibition” value in data set [2] was “sub-micromolar range”.

With `CN1CCN(CCCOc2ncc(Nc3ncc(-c4ccc(C(F)(F)F)c(F)c4)nc3C(N)=O)cn2)CC1` [Compound 46, CN1CCN(CCCOc2ncc(Nc3ncc(nc3C(=O)N)c4ccc(c(F)c4)C(F)(F)F)cn2)CC1], the IC50 was 4.8 µM with HeLa cells (setting [4]), 0.87 µM in data set [2] (setting [5]) and < 1 µM in data set [2] (setting [6]). In the data set on mycobacterial, the “In vitro anti-mycobacterial activity” value is listed as “potent”. Besides, the viability at 10 µM in data set [1] was found to be 3%. For the same molecule, the CC50 in the data set on HepG2 cells is 3.9 µM. For the same molecule, the “T.b. brucei inhibition” value in data set [2] is “sub-micromolar inhibitors; also recorded: sub-micromolar range”. For the same molecule, in data set [2], the Selectivity index is on record as 5.5.

With `COc1cc(-c2cc(-c3ccc(S(C)(=O)=O)cc3)cnc2N)ccc1O` [Compound 53, COc1cc(ccc1O)c2cc(cnc2N)c3ccc(cc3)S(=O)(=O)C], the IC50 with HeLa cells (setting [4]) is > 25 µM; in data set [2] (setting [5]), 0.33 µM; in [2] (setting [6]), < 1 µM. Moreover, the “Inhibition of Leishmaniasis donovani” value in the data set with Leishmaniasis donovani is on record as “moderate inhibitor”. In addition, in data set [1], the viability at 10 µM worked out at 1%. Further, the “T.b. brucei inhibition” value in [2] is on record as “sub-micromolar inhibitors; also recorded: sub-micromolar range; also recorded: activity in the nanomolar range”. Moreover, the Anti-plasmodial activity entry in the data set with plasmodial is “potent and selective”.

Regarding TCMDC 142497 [Compound 70], the Kinetoplastid inhibition result with kinetoplastid is recorded as “potent kinetoplastid inhibitor”.

The term viability denotes a read-out of living cells in per cent, often relative to untreated cells. What is called CC50 is the concentration at which the toxic effect on the cells reaches its halfway point.

The values are drawn from PMC6301270 (MedChemComm, 2018).
